From patent publication US9145376B2, “Quinazolinone inhibitors of dynein” (The Rockefeller University, priority 2011, dated 2015)

Key:
[1] = test system: Hh pathway (Gli-responsive firefly luciferase reporter in Shh-LIGHT2 cells); assay: Shh-LIGHT2 assay for Hh pathway activity; assay type: cell-based; settings: 10% Shh-conditioned medium, 24 hours, firefly/Renilla luciferase ratio
Protocol: Shh-N-conditioned medium was prepared as described by Chen et al., Proc. Natl. Acad. Sci. U.S.A. 99, 14071 (2002). Shh-LIGHT2 cells [J. Taipale et al., Nature 406, 1005 (2000)], an NIH-3T3-based cell line containing a stably integrated Gli-responsive firefly luciferase reporter and a constitutive thymidine kinase promoter-driven Renilla luciferase expression construct (pRLTK, Promega), were cultured in DMEM containing 10% calf serum. 100 U/mL penicillin, and 0.1 mg/mL streptomycin. The cells were seeded into 96-well plates at a density of 30,000 cells/well, and the following day they were treated with individual compounds or DMSO in DMEM containing 0.5% calf serum, 10% Shh-conditioned medium, and the antibiotics described above. After being cultured for another 24 hours, the cells were lysed and their firefly and Renilla luciferase activities were determined using, a dual luciferase reporter kit (Promega) and a microplate luminometer (Veritas). Average values representing the firefly luciferase/Renilla luciferase ratio from triplicate samples were used to construct dose response profiles for each compound. Dose-response data from three separate experiments were independently curve-fitted with a variable slope, sigmoidal dose-response algorithm using Prism software, and the resulting IC50 values were used to generate an average IC50 for each compound.

[2] = test system: primary cilia of Shh-EGFP cells; assay: Quantitative assessment of ciliogenesis (Arl13b staining, cilia size); assay type: cell-based; settings: 24 hours, read-out: Primary cilia size (percent of DMSO control at a 30 μM dose)
Protocol: Shh-EGFP cells [J. Hyman et al., Proc. Natl. Acad. Sci. U.S.A., (2009)], an NIH-3T3-based cell line containing a stably integrated Gli-responsive enhanced green fluorescent protein reporter, were maintained in DMEM containing 10% calf serum, 100 U/mL penicillin, and 0.1 mg/mL streptomycin. The cells were seeded into 24-well plates containing poly-D-lysine-coated 12-mm glass coverslips at a density of 30,000 cells/well and cultured for 36 hours. The cells were transferred into DMEM containing 0.5% calf serum, the antibiotics described above, and either individual compounds at a 30 μM concentration or 0.3% DMSO. After being cultured for another 24 hours, the cells were fixed in PBS containing 4% paraformaldehyde for 10 minutes at room temperature, washed 3×5 minutes with PBS, permeabilized with PBS containing 0.3% Triton X-100 for 5 minutes, and blocked overnight at 4° C. with PBS containing 5% normal goat serum, 0.1% Triton X-100, and 0.05% sodium azide. The coverslips were then incubated for 90 minutes at room temperature with blocking buffer containing rabbit polyclonal anti-Arl 13b antibody (1:3000 dilution), washed 4×5 minutes with PBS containing 0.1% Triton X-100, and incubated for 60 minutes with blocking buffer containing Alexa Fluor 488-conjugated goat polyclonal anti-rabbit IgG antibody (1:300 dilution; Invitrogen, A-11034). Following this secondary antibody incubation, nuclei were stained by incubating the cells 2×10 minutes with PBS containing 0.1% Triton X-100 and […] 4′,6-diamidino-2-phenylindole (DAPI) and washing them 2×5 minutes with PBS. The coverslips were subsequently mounted onto slides using Prolong Gold Antifade Reagent (Invitrogen) and imaged using an HC Plan Apochromat CS 20×/0.70 NA oil immersion objective on a Leica DMI6000B compound microscope equipped with a Photometric CoolSNAP HQ CCD camera and Metamorph software (Molecular Devices). Images of Arl13b staining in DMSO-treated cells were manually examined to establish a minimum threshold value for cilia staining intensity. ImageJ software was then used to define objects consisting of two or more adjacent pixels with a signal intensity equal to or greater than this threshold value, and the total object area within an individual image was used to estimate the total pixel area of primary cilia. Corresponding images of DAPI staining were processed in parallel using CellProfiler software to establish the number of nuclei per image. The average cilia size per cell within an individual image was then determined by dividing the total ciliary pixel area by the number of nuclei. Ten individual images, each containing approximately 150 cells. were used to quantify the average cilia size for each experimental condition.
Shh-EGFP cells, an NIH-3T3-based cell line containing a stably integrated Gli-responsive enhanced green fluorescent protein reporter, were maintained in DMEM containing 10% (v/v) calf serum, 100 U/mL penicillin, and 0.1 mg/mL streptomycin. The cells were seeded into 24-well plates containing poly-D-lysine-coated 12-mm glass coverslips at a density of 30,000 cells/well and cultured for 36 hours. The cells were transferred into DMEM containing 0.5% (v/v) calf serum, the antibiotics described above, and either individual dihydroquinazolinones at a 30 μM concentration or an equivalent amount of DMSO vehicle (0.3%, v/v). After being cultured for another 24 hours, the cells were fixed in PBS containing 4% (w/v) paraformaldehyde for 10 min at room temperature, washed 3×5 min with PBS, permeabilized with PBS containing 0.3% (v/v) Triton X-100 for 5 min, and blocked overnight at 4° C. with PBS containing 5% (v/v) normal goat serum, 0.1% (v/v) Triton X-100, and 0.05% (w/v) sodium azide. […]

[3] = test system: Gli3 processing in Shh-EGFP cells; assay: Quantitative assessment of Hh ligand-dependent Gli3 processing; assay type: cell-based; settings: Shh-EGFP cells stimulated with Shh-N, 16 hours
Protocol: Shh-EGFP cells were seeded into 12-well plate at a density of 120,000 cells/well in DMEM containing 10% calf serum. 100 U/mL penicillin, and 0.1 mg/mL streptomycin. After being cultured for 24 hours, the cells were transferred into DMEM containing 0.5% calf serum, 10% Shh-conditioned medium, the antibiotics described above, and either individual compounds or DMSO. The cells were cultured for an additional 16 hours, washed with PBS, and then lysed by incubation on ice with SDS-PAGE loading buffer composed of 8% glycerol, 20 mM Tris-HCl, pH 6.8, 2% SDS, 100 mM DTT, 1 mM PMSF, 20 mM NaF, 2 mM Na3VO4, and an EDTA-free protease inhibitor cocktail (Roche). The lysed samples were heated to 100° C. for 7 minutes, loaded onto 3-8% Criterion XT Tris-Acetate polyacrylamide gels (Bio-Rad), electrophoresed in XT Tricine buffer (Bio-Rad), and transferred onto PVDF membranes. The membranes were dehydrated with methanol and probed overnight at 4° C. with goat polyclonal anti-Gli3 antibody (0.4 μg/mL: R & D Systems, AF3690) in PBS containing 4% non-fat dry milk and 0.1% Tween-20 (immunoblot blocking buffer). The blots were then washed 4×1 minutes in PBS and incubated with horseradish peroxidase-conjugated bovine polyclonal anti-goat IgG antibody (0.04 μg/mL, Jackson ImmunoResearch, 805-035-180) in immunoblot blocking buffer for 1 hour at room temperature. The membranes were next washed 4×1 minutes in PBS and visualized using SuperSignal West Dura Extended Duration substrate (Thermo Scientific) and a ChemiDoc XRS imaging system (Bio-Rad). Band intensities of Gli3FL and Gli3R where quantified using Quantity One software (Bio-Rad), and five independent experiments were used to determine the average Gli3FL/Gli3R ratio for each compound.

basal cell carcinoma = settings: 33 human patients; cited from earlier work
medulloblastoma = settings: human patient; cited from earlier work

Row | SMILES | IC50 [1] [µM] | other results
1 | N#C/C(C(=O)c1ccc(Br)cc1)=C1\NC(=O)c2ccccc2N1 [Example 3] | 5 | –
2 | N#C/C(C(=O)c1ccc(I)cc1)=C1\NC(=O)c2ccccc2N1 [Example 4] | 4.5 | –
3 | Cc1ccc(C(=O)/C(C#N)=C2/NC(=O)c3ccccc3N2)cc1 [Example 5] | 15 | –
4 | CC(C)Cc1ccc(C(=O)/C(C#N)=C2/NC(=O)c3ccccc3N2)cc1 [Example 6] | 6.5 | –
5 | COc1ccc(C(=O)/C(C#N)=C2/NC(=O)c3ccccc3N2)cc1 [Example 8] | 30 | –
6 | N#C/C(C(=O)c1ccc([N+](=O)[O-])cc1)=C1\NC(=O)c2ccccc2N1 [Example 9] | 25 | –
7 | N#C/C(C(=O)c1ccccc1Cl)=C1\NC(=O)c2ccccc2N1 [Example 10, 3-(2-chlorophenyl)-3-oxo-2-(4-oxo-3,4-dihydroquinazolin-2(1H)-ylidene)propanenitrile] | 25 | activity at 30 µM [2]: 93%
8 | N#C/C(C(=O)c1ccccc1F)=C1\NC(=O)c2ccccc2N1 [Example 11] | 30 | –
9 | N#C/C(C(=O)c1ccccc1Br)=C1\NC(=O)c2ccccc2N1 [Example 12] | 15 | –
10 | N#C/C(C(=O)c1ccccc1I)=C1\NC(=O)c2ccccc2N1 [Example 13] | 20 | –
11 | Cc1ccccc1C(=O)/C(C#N)=C1/NC(=O)c2ccccc2N1 [Example 14] | 30 | –
12 | COc1ccccc1C(=O)/C(C#N)=C1/NC(=O)c2ccccc2N1 [Example 15] | > 30 | –
13 | N#C/C(C(=O)c1cccc(Cl)c1)=C1\NC(=O)c2ccccc2N1 [Example 17, 3-(3-chlorophenyl)-3-oxo-2-(4-oxo-3,4-dihydroquinazolin-2 (1H)-ylidene)propanenitrile] | 5.5 | activity at 30 µM [2]: 68%
14 | N#C/C(C(=O)c1ccc(Cl)c(Cl)c1)=C1\NC(=O)c2ccccc2N1 [Example 18] | 3 | activity at 30 µM [2]: 16%
15 | N#C/C(C(=O)c1cc(Cl)cc(Cl)c1)=C1\NC(=O)c2ccccc2N1 [Example 19] | 3 | activity at 30 µM [2]: 65%
16 | COc1cc(C(=O)/C(C#N)=C2/NC(=O)c3ccccc3N2)cc(OC)c1OC [Example 20] | > 30 | –
17 | N#C/C(C(=O)c1cccc2ccccc12)=C1\NC(=O)c2ccccc2N1 [Example 21] | 20 | –
18 | Cc1cccc(C(=O)/C(C#N)=C2/NC(=O)c3ccccc3N2)c1 [Example 22] | 5 | –
19 | O=C(/C=C1/NC(=O)c2ccccc2N1)c1ccc(Cl)cc1Cl [Example 23] | 4.4 | activity at 30 µM [2]: 70%
20 | N#C/C(=C\c1ccc(Cl)cc1Cl)C1NC(=O)c2ccccc2N1 (stereo not drawn) [Example 24] | > 50 | activity at 30 µM [2]: 104%
21 | N#C/C(C(=O)c1ccc(Cl)cc1Cl)=C1\NC(=O)c2c(Cl)cccc2N1 [Example 25, 2-(5-chloro-4-oxo-3,4-dihydroquinazolin-2(1H)-ylidene)-3-(2,4-dichlorophenyl)-3-oxo-propanenitrile] | 11 | Gli3FL/Gli3R ratio [3]: altered the Gli3FL/Gli3R ratio; Shh-N-dependent Gli3FL phosphorylation [3]: reduced; activity at 30 µM [2]: 32%
22 | Cc1cccc2c1C(=O)N/C(=C(\C#N)C(=O)c1ccc(Cl)cc1Cl)N2 [Example 26] | 10 | –
23 | N#C/C(C(=O)c1ccc(Cl)cc1Cl)=C1\NC(=O)c2cc(Cl)ccc2N1 [Example 27, 2-(6-chloro-4-oxo-3,4-dihydroquinazolin-2(1H)-ylidene)-3-(2,4-dichlorophenyl)-3-oxopropanenitrile] | 6.1 | Gli3FL/Gli3R ratio [3]: altered the Gli3FL/Gli3R ratio; Shh-N-dependent Gli3FL phosphorylation [3]: reduced; activity at 30 µM [2]: 11%
24 | N#C/C(C(=O)c1ccc(Cl)cc1Cl)=C1\NC(=O)c2cc(I)ccc2N1 [Example 28] | 6 | –
25 | N#C/C(C(=O)c1ccc(Cl)cc1Cl)=C1\NC(=O)c2cc(C#CCN)ccc2N1 [Example 29] | 20 | –
26 | CC(=O)NCC#Cc1ccc2c(c1)C(=O)N/C(=C(\C#N)C(=O)c1ccc(Cl)cc1Cl)N2 [Example 30] | 30 | –
27 | N#C/C(C(=O)c1ccc(Cl)cc1Cl)=C1\NC(=O)c2ccc(I)cc2N1 [Example 32] | 12 | –
28 | COc1ccc2c(c1)N/C(=C(/C#N)C(=O)c1ccc(Cl)cc1Cl)NC2=O [Example 33] | 15 | –
29 | CS(=O)(=O)c1ccc(C(=O)Nc2ccc(Cl)c(-c3ccccn3)c2)c(Cl)c1 [GDC-0449] | – | tumor response, basal cell carcinoma (basal cell carcinoma): clinically significant response; tumor response, medulloblastoma (medulloblastoma): regression of medulloblastoma
